Test [1] concerns the target T1, pirin (Homo sapiens, UniProt O00625).
T1 sequence (O00625 1-290): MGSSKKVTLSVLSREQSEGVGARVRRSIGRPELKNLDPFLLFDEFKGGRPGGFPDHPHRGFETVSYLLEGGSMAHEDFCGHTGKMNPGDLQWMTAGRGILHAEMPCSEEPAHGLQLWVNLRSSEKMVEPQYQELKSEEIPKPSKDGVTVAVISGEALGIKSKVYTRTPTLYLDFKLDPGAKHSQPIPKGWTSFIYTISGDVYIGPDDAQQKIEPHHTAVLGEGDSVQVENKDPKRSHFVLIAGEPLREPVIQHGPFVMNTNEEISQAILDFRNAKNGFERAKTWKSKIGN
As to the kind of experiment: ITC. In kind it is binding.

Test [2] concerns the target T1, pirin. As to the kind of experiment: ITC. The test is classed as binding. This is another data set of the same source.

Drawing on article PMC7006939 (ACS pharmacology & translational science, 2019), this text covers Kd for two compounds.

Where two headings read alike, the source gives them in different places.

As usually defined, the Kd is the free concentration of one partner at which half of the binding sites on the other are occupied at equilibrium, for simple one-to-one binding. Higher therefore signals weaker binding.

`O=C(Nc1ccc(Cl)cc1)C1CN(C(=O)c2cccc(-c3ccco3)c2)CC(F)(F)C1` (racemic) [CCG-222740] returned a Kd in test [1] of 4.3 µM.

In turn, `O=C(Nc1ccc(Cl)cc1)C1CN(C(=O)c2cc(F)cc(-c3ccncc3)c2)CC(F)(F)C1` (centres unmarked) [CCG-257081] showed an equilibrium dissociation constant (Kd) in test [2] of 8.5 µM. This lies in the single-digit micromolar range.
